These are literature values, as cited in article PMC8924334, “Synthesis of [^11C]carbonyl-labeled cyclohexyl (5-(2-acetamidobenzo[d]thiazol-6-yl)-2-methylpyridin-3-yl)carbamate ([^11C-carbonyl]PK68) as a potential PET tracer for receptor-interacting protein 1 kinase” (EJNMMI Radiopharmacy and Chemistry, 2022).

Each structure is given as a SMILES string. Read-outs that look alike come from different tables or passages of the source.

Data set [1] deals with RIPK1. Also noted: method as in Hou et al. 2019. The conditions noted are these: human cell line; ref Hou et al. 2019; cited from earlier work.
The subject of data set [2] is RIPK1. Also noted: method as in Hou et al. 2019. To be noted: mouse cell line; ref Hou et al. 2019; cited from earlier work.
The test system of a further data set is melanoma (B16F10). Also noted: method as in Hou et al. 2019. To be noted: B16F10-bearing mice; ref Hou et al. 2019; cited from earlier work.
Data set [3] deals with RIPK1. Also noted: method as in Harris et al. 2017. The conditions noted are these: human cells; ref Harris et al. 2017; cited from earlier work.
In data set [4] the test system is RIPK1. Also noted: method as in Harris et al. 2017, 2019. To be noted: rodents; ref Harris et al. 2017, 2019; cited from earlier work.
The test system of data set [5] is RIPK1. Also noted: method as in Degterev et al. 2005. The conditions noted are these: ref Degterev et al. 2005; cited from earlier work.

A word on the IC50: it is the concentration that gives 50% inhibition. Turning to `CC(=O)Nc1nc2ccc(-c3cnc(C)c(NC(=O)OC4CCCCC4)c3)cc2s1` [PK68, cyclohexyl (5-(2-acetamidobenzo[d]thiazol-6-yl)-2-methylpyridin-3-yl)carbamate], the results for the IC50 in the data set with RIPK1 [1] and in the data set with RIPK1 [2] were 23 nM and 13 nM, respectively. For the same compound, the “number of tumor metastases” value with melanoma (B16F10) was “significant reduction in the number of tumor metastases”.

As to `CN1C(=O)[C@@H](NC(=O)c2n[nH]c(Cc3ccccc3)n2)COc2ccccc21` [compound 3], the concentration for half-maximal inhibition (IC50) with RIPK1 [3] is 6.3 nM; in the data set on RIPK1 [4], more than 1000 nM.

Usually EC50 stands for the concentration that produces a half-maximal response. In the case of `CN1C(=O)NC(Cc2c[nH]c3c(Cl)cccc23)C1=O` (centres unmarked) [compound 2, 7-Cl-O-Nec-1], the 50% effective concentration (EC50) with RIPK1 [5] is 210 nM.

As to `CN1C(=O)C(Cc2c[nH]c3ccccc23)NC1=S` (centres unmarked) [compound 1, Necrostatin-1], the EC50 with RIPK1 [5] was 490 nM. In the data set on melanoma (B16F10), the “number of tumor metastases” value is “significant reduction in the number of tumor metastases”.
